Experimental data reported in patent publication US3937832A, “Esters of 2,2-diphenyl-cyclopropane-carboxylic acids as cough suppressants” (Societe anonyme dite: Hexachimie, priority 1974, dated 1976).

Experiments:
[1] = system: rats; test: Acute toxicity, lethal doses two days after intraperitoneal treatment; format: in vivo; conditions: rat
Protocol: (§1) The products tested are dissolved in a […] sodium chloride solution or, if they are insoluble in this solution, suspended using "Tween 80" (for oral and intraperitoneal administration) or dissolved in polyethylene glycol 300 (for intravenous administration).
The acute toxicity is determined on batches, each of two rats. The doses administered extend from 4 to 512 mg./kg. in geometrical progression, constant ratio 2.
Table II below gives the 0 to 100 (%) lethal doses, two days after treatment, in mg./kg. administered intraperitoneally.

[2] = system: phenylbenzoquinone-induced reactions (stretching of the body); test: Antalgic activity: inhibition of phenylbenzoquinone-induced stretching; format: in vivo; conditions: Mus musculus, 1 h, read-out: percentage inhibition relative to control animals; for inhibition in vivo at 16 mg/kg / inhibition in vivo at 64 mg/kg / inhibition in vivo at 32 mg/kg: mice, oral; for inhibition in vivo at 128 mg/kg: po
Protocol: as §1
The products to be tested are administered orally to batches of six mice each weighing 19-21 g. One hour afterwards, 0.20 ml. of an aqueous-alcoholic solution containing 0.02% of phenylbenzoquinone (phenylbenzoquinone: 20 mg, 96% alcohol; 5 ml; water q.s.p. 100 ml) is injected intraperitoneally. The number of reactions (stretching of the body) from the 5th to the 10th minutes following the injection of phenylbenzoquinone is counted.
Table IV gives the percentage inhibition relative to control animals. __________________________________________________________________________ Compound of Example No. Dose, mg/kg 1 2 3 administered and 4 5 7 9 10 11 12 13 14 15 16 18 19 20 orally 6 17 8 __________________________________________________________________________ 16 10 57 -- 23 -- 25 14 21 22 45 24 35 29 40 43 3 26 32 -- 38 37 -- 0 -- -- -- -- -- -- -- -- -- -- -- -- 64 31 63 -- 17 -- 25 19 46 38 36 24 38 29 28 55 26 38 128 -- -- 41 -- 19 -- -- -- -- -- -- -- -- -- -- -- -- __________________________________________________________________________

[3] = system: subjects suffering from chronic bronchitis; test: Clinical experiments on subjects suffering from chronic bronchitis; format: in vivo, human; conditions: subjects with chronic bronchitis
Protocol: Clinical experiments were also carried out with the product of Example 1 on subjects suffering from chronic bronchitis.

[4] = system: cough reaction to stimulation of the upper laryngeal nerves; test: Anti-tussive activity: Domenjoz method (stimulation of upper laryngeal nerves); format: in vivo, cat; set-up: key: 0: inactive; +: marked diminution of cough; ++: suppression of cough for 5 to 15 minutes; +++: suppression of cough for more than 15 minutes; conditions: anaesthetised cats, intravenous (femoral vein)
Protocol: as §1
Cats are anaesthetised by intraperitoneal injection of 30 mg./kg. of sodium mebubarbital. The arterial pressure is measured on the femoral artery by a Statham P 23 Db gauge. A tracheotomy is carried out; a Y-shaped cannula allows a part of the air breathed out to be branched off onto a Statham PM 6 gauge; the cardiac rhythm is measured by integration of the QRS complexes of the electrocardiogram. All these measurements are amplified and recorded on a Beckman Dynograph. The two upper laryngeal nerves are very carefully dissected and stimulated for 10 seconds by a surging current generated by a Hugo Sachs Stimulator I: voltage 3 volts, duration […], frequency 50 cycles/second. The test products are injected into the femoral vein. The first stimulation takes place 5 minutes after administration of the product and then every 5 minutes until the reaction returns to the initial amplitude. Each nerve is stimulated in turn (left-hand nerve: 5, 15, 25 minutes etc; right-hand nerve 10, […] minutes etc. after treatment).
+ marked diminution of cough
++ suppression of cough for 5 to 15 minutes
+++ suppression of cough for more than 15 minutes

[5] = Solubility under the conditions of the local anaesthetic test; format: physicochemical; conditions: sodium chloride solution, pH of 6 to 7
Protocol: This is investigated by the technique of Bulbring and Wajda. The backs of male guinea pigs weighing 350-450 g. are shaved with an electric razor. 0.1 ml. of a solution of the compounds to be tested is injected into the dermis (only those products which are soluble in the sodium chloride solution and give a pH of 6 to 7 are examined). Four points spaced 2 cm apart are marked on the skin, the product being administered at two of these and the solvent being administered at the remaining two. The skin reflex is examined by pricking each point six times with a mounted bristle. The number of positive reactions is counted and an inhibition percentage is calculated from the total number of positive reactions over the course of 30 minutes. Table V gives the inhibition percentages measured as a function of the concentrations of the solutions. The compounds of Examples 7, 18 and 19 are insoluble under the experimental conditions.

| Compound | LD0 [1] [mg/kg] | LD100 [1] [mg/kg] | inhibition in vivo at 16 mg/kg [2] [%] | inhibition in vivo at 64 mg/kg [2] [%] | effect on cough [3] | facilitation of expectoration [3] | sensation of feeling better [3] | reduction in expectoration ([3]; "the latter" = expectoration) | Rating (anti-tussive activity) [4] | inhibition in vivo at 32 mg/kg [2] [%] | inhibition in vivo at 128 mg/kg [2] [%] | solubility under the experimental conditions [5] |
| --- | --- | --- | --- | --- | --- | --- | --- | --- | --- | --- | --- | --- |
| O=C(OCCN1CCCCC1)C1CC1(c1ccccc1)c1ccccc1 (stereo not drawn) [Example 1, β-Piperidino-ethyl ester of 2,2-diphenyl-cyclopropane-carboxylic acid] | 64 | 128 | 10 | 31 | suppression of the cough | facilitation of expectoration | a sensation of feeling better | a reduction in the latter | – | – | – | – |
| O=C(OCCOCCN1CCCC1)C1CC1(c1ccccc1)c1ccccc1 (centres unmarked) [Example 2, 2-(2'-pyrrolidino-ethoxy)-ethyl ester of 2,2-diphenyl-cyclopropane carboxylic acid] | 32 | 128 | 57 | 63 | – | – | – | – | + | 38 | – | – |
| O=C(OCCN1CCOCC1)C1CC1(c1ccccc1)c1ccccc1 (stereo not drawn) [Example 3, β-Morpholino-ethyl ester of 2,2-diphenyl-cyclopropane-carboxylic acid] | 128 | 256 | – | – | – | – | – | – | – | 37 | 41 | – |
| CN(C)CCOC(=O)C1CC1(c1ccccc1)c1ccccc1 (centres unmarked) [Example 4] | 128 | 256 | 23 | 17 | – | – | – | – | – | – | – | – |
| O=C(OCCN1CCCC1)C1CC1(c1ccccc1)c1ccccc1 (centres unmarked) [Example 5] | 128 | 256 | – | – | – | – | – | – | – | 0 | 19 | – |
| O=C(OCCN1CCCCCC1)C1CC1(c1ccccc1)c1ccccc1 (centres unmarked) [Example 7] | 64 | 128 | 25 | 25 | – | – | – | – | – | – | – | insoluble |
| CN1CCN(CCOC(=O)C2CC2(c2ccccc2)c2ccccc2)CC1 (centres unmarked) [Example 9] | 64 | 128 | 14 | 19 | – | – | – | – | + | – | – | – |
| CC1CCCN(CCOC(=O)C2CC2(c2ccccc2)c2ccccc2)C1 (centres unmarked) [Example 10] | 64 | 256 | 21 | 46 | – | – | – | – | – | – | – | – |
| CC1CCN(CCOC(=O)C2CC2(c2ccccc2)c2ccccc2)CC1 (centres unmarked) [Example 11] | 64 | 256 | 22 | 38 | – | – | – | – | + | – | – | – |
| CC1CCCC(C)N1CCOC(=O)C1CC1(c1ccccc1)c1ccccc1 (centres unmarked) [Example 12] | 32 | 128 | 45 | 36 | – | – | – | – | – | – | – | – |
| Cc1ccc(C2(c3ccc(C)cc3)CC2C(=O)OCCN2CCCC2)cc1 (centres unmarked) [Example 13] | 128 | 256 | 24 | 24 | – | – | – | – | – | – | – | – |
| Cc1ccc(C2(c3ccc(C)cc3)CC2C(=O)OCCN2CCCCC2)cc1 (centres unmarked) [Example 14] | 256 | 512 | 35 | 38 | – | – | – | – | – | – | – | – |
| O=C(OCCN1CCCCC1)C1CC1(c1ccc(Cl)cc1)c1ccc(Cl)cc1 (centres unmarked) [Example 15] | 128 | 256 | 29 | 29 | – | – | – | – | + | – | – | – |
| COc1ccc(C2(c3ccc(OC)cc3)CC2C(=O)OCCN2CCCCC2)cc1 (centres unmarked) [Example 16] | 128 | 512 | 40 | 28 | – | – | – | – | + | – | – | – |
| O=C(OCCOCCN1CCCCC1)C1CC1(c1ccccc1)c1ccccc1 (centres unmarked) [Example 18] | 64 | 256 | 43 | 55 | – | – | – | – | – | – | – | insoluble |
| O=C(OCCOCCN1CCCCCC1)C1CC1(c1ccccc1)c1ccccc1 (centres unmarked) [Example 19] | 64 | 128 | 3 | 26 | – | – | – | – | + | – | – | insoluble |
| CN1CCN(CCOCCOC(=O)C2CC2(c2ccccc2)c2ccccc2)CC1 (centres unmarked) [Example 20] | 64 | 128 | 26 | 38 | – | – | – | – | + | – | – | – |
